For 40 compounds, IC50 results are on record in patent US11396517B1, “Exo-aza spiro inhibitors of menin-MLL interaction” (Janssen Pharmaceutica NV, priority 2017, dated 2022).

The subject of one test is MOLM14. As to the kind of experiment: Proliferation assay B (spheroid assay) MOLM14. Type of test: cell-based, human. The note with it: MOLM14 cells, confluence at day 8, absolute IC50, read-out: (3b) Spheroid assay MOLM14 (IC50(μM)) Assay B. Here is the method: 3b) Proliferation Assay B
The anti-proliferative effect of menin/MLL protein/protein interaction inhibitor test compounds was assessed in human leukemia cell lines. The cell lines MV-4-11 and MOLM14 harbor MILL translocations and express the MILL fusion proteins MLL-AF4 and MLL-AF9, respectively, as well as the wildtype protein from the second allele. […] K562 was used as a control cell line containing two MLL wildtype alleles in order to exclude compounds that display general cytotoxic effects.
MV-4-11 and MOLM14 were cultured in RPMI-1640 (Sigma Aldrich) supplemented with 10% fetal bovine serum (HyClone), 2 mM L-glutamine (Sigma Aldrich) and 50 μg/ml gentamycin (Gibco). K562 were propagated in RPMI-1640 (Sigma Aldrich) supplemented with 20% fetal bovine serum (HyClone), 2 mM L-glutamine (Sigma Aldrich) and 50 μg/ml gentamycin (Gibco).
In order to assess the anti-proliferative effects, 1,500 MV-4-11, 300 MOLM14 cells or 750 K562 cells were seeded in 200 μl media per well in 96-well round bottom, ultra-low attachment plates (Costar, catalogue number 7007). Cell seeding numbers were chosen based on growth curves to ensure linear growth throughout the experiment. Test compounds were added at different concentrations and the DMSO content was normalized to 0.3%. Cells were incubated for 8 d at 37° C. and 5% CO2. Spheroid like growth was measured in real-time by live-cell imaging (IncuCyteZOOM, Essenbio, 4× objective) acquiring images at day 8. Confluence (%) as a measure of spheroid size was determined using an integrated analysis tool.
In order to determine the effect of the test compounds over time, the confluence in each well as a measure of spheroid size, was calculated. Confluence […] at the beginning of the experiment (t=0) was used as baseline for the calculation.
Absolute IC50 values were calculated as percent change in confluence as follows:
LC=Low Control: cells treated with 1 μM of the cytotoxic agent staurosporin
HC=High Control: Mean confluence (%) (DMSO treated cells) % Effect=100−(100*(Sample−LC)/(HC−LC))
To determine the IC50 a curve is fitted to the plot of % Effect vs Log 10 compound concentration using a sigmoidal fit with a variable slope and fixing the maximum to 100% and the minimum to 0%.

Another test addresses T1, menin (Homo sapiens, UniProt O00255, T541A).
T1 construct: Menin (a.a. 1-610-6×his tag)
T1 sequence (O00255 with tags, fused parts or gaps T541A): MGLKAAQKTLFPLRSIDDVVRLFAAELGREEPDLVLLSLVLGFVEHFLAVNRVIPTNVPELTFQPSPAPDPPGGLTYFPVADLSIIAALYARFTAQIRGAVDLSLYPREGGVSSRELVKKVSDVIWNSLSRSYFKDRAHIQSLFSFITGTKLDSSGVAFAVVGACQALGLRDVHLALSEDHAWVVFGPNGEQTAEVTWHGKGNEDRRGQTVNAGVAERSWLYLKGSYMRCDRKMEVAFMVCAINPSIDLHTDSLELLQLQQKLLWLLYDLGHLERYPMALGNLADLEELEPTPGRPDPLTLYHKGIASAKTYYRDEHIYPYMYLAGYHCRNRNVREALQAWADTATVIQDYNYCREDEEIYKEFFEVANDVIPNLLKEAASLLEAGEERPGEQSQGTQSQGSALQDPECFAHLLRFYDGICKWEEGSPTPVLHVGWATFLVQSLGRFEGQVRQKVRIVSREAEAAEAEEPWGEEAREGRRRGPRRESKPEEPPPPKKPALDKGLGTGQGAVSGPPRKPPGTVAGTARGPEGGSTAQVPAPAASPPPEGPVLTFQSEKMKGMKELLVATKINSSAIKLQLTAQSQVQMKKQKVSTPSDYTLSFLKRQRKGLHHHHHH
As to the kind of experiment: Menin/MLL homogenous time-resolved fluorescence (HTRF) assay. Type of test: binding. In a few lines:
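Displacement of 75 nM FITC-MBM1 from terbium-cryptate-labeled His-tagged menin 1-610 ([…]) was read as the 520/490 nm HTRF ratio. Compound (11-point, 3-fold series) got 5 min with menin before peptide, then 15 min at ambient; 0.5% DMSO, Tris pH 7.5.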

Setting [1] is: location 2, read-out: (2) location 2 Menin HTRF assay (IC50 (nM)).
Setting [2] is: location 1, read-out: (2) location 1 Menin HTRF assay (IC50 (nM)).

Where two headings read alike, the source gives them in different places.

In the case of `N#Cc1ccc(NC2CC3(CCN(c4ncnc5sc(CC(F)(F)F)cc45)C3)C2)cn1` (mixture of isomers) [Compound 176], the IC50 – broadly, the concentration needed to halve the response being measured – worked out at 1.55 µM in the test on MOLM14 (Homo sapiens, MOLM-14, 192 h) and 18.7 nM at menin (setting [1]).
Consider `CN(C)CCN(C)C(=O)c1ccc(NC2CC3(CCN(c4ncnc5sc(CC(F)(F)F)cc45)C3)C2)cc1` (mixture of isomers) [Compound 180], for which the IC50 in the test on MOLM14 (Homo sapiens, MOLM-14, 192 h) was more than 3.75 µM; on menin (setting [1]), 43.4 nM.
In the case of `CC(NC(=O)c1ccc(NC2CC3(CCN(c4ncnc5sc(CC(F)(F)F)cc45)C3)C2)cc1)C1CCN(S(C)(=O)=O)CC1` (mixture of isomers) [Compound 191], the IC50 in the test on MOLM14 (Homo sapiens, MOLM-14, 192 h) worked out at 1.22 µM; at menin (setting [1]) it was 7.9 nM.
Turning to `CC(CN1CCN(S(C)(=O)=O)CC1)NC(=O)c1ccc(NC2CC3(CCN(c4ncnc5sc(CC(F)(F)F)cc45)C3)C2)cc1` (mixture of isomers) [Compound 192], the IC50 was 1 µM in the test with MOLM14 (Homo sapiens, MOLM-14, 192 h) and 13.1 nM at menin (setting [1]).
As to `CC(CN(C)C)NC(=O)c1ccc(NC2CC3(CCN(c4ncnc5sc(CC(F)(F)F)cc45)C3)C2)cc1` (mixture of isomers) [Compound 193], the IC50 is 0.46 µM with MOLM14 (Homo sapiens, MOLM-14, 192 h) and 4.2 nM on menin (setting [1]).
For the compound `O=c1[nH]c2ccc(NCC3CC4(CCN(c5ncnc6sc(CC(F)(F)F)cc56)C4)C3)cc2[nH]1` (mixture of isomers) [Compound 198], the IC50 with MOLM14 (Homo sapiens, MOLM-14, 192 h) is more than 3.75 µM; at menin (setting [1]), 141 nM.
Consider `CNC(=O)c1ccc(NC2CC3(CCN(c4ncnc5sc(CC(F)(F)F)cc45)C3)C2)cc1Cl` (mixture of isomers) [Compound 214], for which the IC50 with MOLM14 (Homo sapiens, MOLM-14, 192 h) is more than 3.75 µM; on menin (setting [1]), 9.4 nM.
With `CS(=O)(=O)N1CCN(CCn2c(=O)[nH]c3ccc(NC4CC5(CCN(c6ncnc7sc(CC(F)(F)F)cc67)C5)C4)cc32)CC1` (mixture of isomers) [Compound 221], the IC50 with MOLM14 (Homo sapiens, MOLM-14, 192 h) is more than 3.75 µM; on menin (setting [1]), 4000 nM.
On the same counts, the results for `CS(=O)(=O)N1CCN(CCn2c(=O)[nH]c3cc(NC4CC5(CCN(c6ncnc7sc(CC(F)(F)F)cc67)C5)C4)ccc32)CC1` (mixture of isomers) [Compound 222] are more than 3.75 µM and 418 nM.
As for `CNC(=O)c1ccc(NC2CC3(CCN(c4ncnc5sc(CC(F)(F)F)cc45)C3)C2)cc1CCCN(C)C` (mixture of isomers) [Compound 236], the IC50 was more than 3.75 µM with MOLM14 (Homo sapiens, MOLM-14, 192 h) and 80 nM on menin (setting [1]).
On the same counts, the results for `CN1CCC(COc2cc(NC3CC4(CCN(c5ncnc6sc(CC(F)(F)F)cc56)C4)C3)ccc2C#N)CC1` (mixture of isomers) [Compound 241] are 2.64 µM and 114 nM.
Turning to `N#Cc1ccc(NC2CC3(CCN(c4ncnc5sc(CC(F)(F)F)cc45)C3)C2)nc1` (single isomer, unassigned) [Compound 174], the IC50 in the test with MOLM14 was 2.94 µM.
With `N#CCc1cccc(C(=O)NC2CC3(CCN(c4ncnc5sc(CC(F)(F)F)cc45)C3)C2)c1` (centres unmarked) [Compound 8], the IC50 at menin (setting [2]) was found to be 1250 nM; on menin (setting [1]), 1010 nM.
In the case of `CC(C)(C#N)c1cccc(C(=O)NC2CC3(CCN(c4ncnc5sc(CC(F)(F)F)cc45)C3)C2)c1` (centres unmarked) [Compound 9], the IC50 at menin (setting [2]) was determined as 3810 nM; at menin (setting [1]), 1220 nM.
For `N#CCc1cccc(C(=O)NC2CCC3(C2)CN(c2ncnc4sc(CC(F)(F)F)cc24)C3)c1` (centres unmarked) [Compound 18], in that order: 3840 nM and 1620 nM.
As for `CC(C)(C#N)c1cccc(C(=O)NC2CCC3(C2)CN(c2ncnc4sc(CC(F)(F)F)cc24)C3)c1` (centres unmarked) [Compound 19], the results for the IC50 at menin (setting [2]) and on menin (setting [1]) were 3630 nM and 3560 nM, respectively.
As for `N#CCc1ccc(C(=O)NC2CCC3(C2)CN(c2ncnc4sc(CC(F)(F)F)cc24)C3)cc1` (centres unmarked) [Compound 20], the values for the IC50 at menin (setting [2]) and on menin (setting [1]) were 2020 nM and 2790 nM, respectively.
For `O=S(=O)(NC1CC2(CCN(c3ncnc4sc(CC(F)(F)F)cc34)C2)C1)c1ccccc1` (centres unmarked) [Compound 24], the IC50 at menin (setting [1]) was 419 nM.
Still for that read-out and setting: as for `O=C(NC1CCC2(C1)CN(c1ncnc3sc(CC(F)(F)F)cc13)C2)c1cccc(-c2cc[nH]n2)c1` (centres unmarked) [Compound 30], the figure is 3890 nM; as for `O=C(NC1CC2(CCN(c3ncnc4sc(CC(F)(F)F)cc34)C2)C1)c1ccccc1` (centres unmarked) [Compound 36], 7520 nM; as for `O=S(=O)(NC1CCC2(CCN(c3ncnc4sc(CC(F)(F)F)cc34)C2)C1)c1ccccc1` (centres unmarked) [Compound 39], 1440 nM.
In the case of `Cn1cc(NC2CCC3(C2)CN(c2ncnc4sc(CC(F)(F)F)cc24)C3)cn1` (centres unmarked) [Compound 43], the IC50 on menin (setting [1]) was determined as 1750 nM.
On the same count and under the same terms, next, `O=C1CN(C(=O)c2ccc(NC3CC4(CCN(c5ncnc6sc(CC(F)(F)F)cc56)C4)C3)cc2)CCN1` (centres unmarked) [Compound 104]: 16.6 nM.
Same read-out and setting: next, `N#CCc1cccc(NC2CCC3(C2)CN(c2ncnc4sc(CC(F)(F)F)cc24)C3)c1` (centres unmarked) [Compound 114]: 157 nM; `COc1nc(N2CC3(CCC(NCc4ccc5[nH]c(=O)[nH]c5c4)C3)C2)c2cc(CC(F)(F)F)sc2n1` (centres unmarked) [Compound 117]: 111 nM.
`CNC(=O)c1ccc(NC2CCC3(C2)CN(c2nc(NC)nc4sc(CC(F)(F)F)cc24)C3)cc1` (centres unmarked) [Compound 123]: the IC50 on menin (setting [1]) was determined as 137 nM.
For the compound `N#CCc1cccc(S(=O)(=O)NC2CCC3(CCN(c4ncnc5sc(CC(F)(F)F)cc45)C3)C2)c1` (centres unmarked) [Compound 124], the IC50 at menin (setting [1]) turned out to be 2530 nM.
Same read-out and setting: next, `N#CCc1ccc(S(=O)(=O)NC2CCC3(CCN(c4ncnc5sc(CC(F)(F)F)cc45)C3)C2)cc1` (centres unmarked) [Compound 125]: 5940 nM.
For `N#CCc1ccc(C(=O)NC2CCC3(CCN(c4ncnc5sc(CC(F)(F)F)cc45)C3)C2)cc1` (centres unmarked) [Compound 126], the IC50 on menin (setting [1]) was more than 10000 nM.
Regarding `N#CCc1cccc(C(=O)NC2CCC3(CCN(c4ncnc5sc(CC(F)(F)F)cc45)C3)C2)c1` (centres unmarked) [Compound 127], the IC50 on menin (setting [1]) was more than 10000 nM.
Consider `O=C(NC1CCC2(CCN(c3ncnc4sc(CC(F)(F)F)cc34)C2)C1)c1ccccc1` (centres unmarked) [Compound 128], for which the IC50 on menin (setting [1]) is more than 10000 nM.
As for `N#Cc1cccc(NC2CCC3(CCN(c4ncnc5sc(CC(F)(F)F)cc45)C3)C2)c1` (centres unmarked) [Compound 132], the IC50 on menin (setting [1]) is 180 nM.
Consider `CC(C)(C#N)c1ccc(NC2CC3(CCN(c4ncnc5sc(CC(F)(F)F)cc45)C3)C2)cc1` (centres unmarked) [Compound 169], for which, at menin (setting [1]), the IC50 was determined as 425 nM.
With `N#CCc1cccc(NC2CC3(CCN(c4ncnc5sc(CC(F)(F)F)cc45)C3)C2)c1` (centres unmarked) [Compound 201], the half-inhibitory concentration (IC50) at menin (setting [1]) worked out at 175 nM.
Take `Cc1nc(N2CCC3(CC(Nc4ccccc4)C3)C2)c2cc(CC(F)(F)F)sc2n1` (centres unmarked) [Compound 264]: at menin (setting [1]), the IC50 is 913 nM.
For `O=c1ccc(NC2CCC3(C2)CN(c2ncnc4sc(CC(F)(F)F)cc24)C3)c[nH]1` (centres unmarked) [Compound 283], the IC50 on menin (setting [1]) amounted to 2160 nM.
In the case of `FC(F)(F)Cc1cc2c(N3CC4(CCC(Nc5ccc6cc[nH]c6c5)C4)C3)ncnc2s1` (centres unmarked) [Compound 284], the IC50 at menin (setting [1]) turned out to be 423 nM.
In the case of `CNc1nc(N2CC3(CCC(Nc4ccc(CC#N)cc4)C3)C2)c2cc(CC(F)(F)F)sc2n1` (centres unmarked) [Compound 400], the IC50 at menin (setting [1]) amounted to 373 nM.
As to `CNc1nc(N2CC3(CCC(Nc4ccc5oc(=O)[nH]c5c4)C3)C2)c2cc(CC(F)(F)F)sc2n1` (centres unmarked) [Compound 401], on menin (setting [1]), the IC50 was 331 nM.
With `CNc1nc(N2CC3(CCC(Nc4ccc5[nH]c(=O)[nH]c5c4)C3)C2)c2cc(CC(F)(F)F)sc2n1` (centres unmarked) [Compound 402], the IC50 on menin (setting [1]) is 906 nM.
